{
  "source": "patent US10532018B2",
  "about": "“Method of whitening skin using tranexamic acid-peptide having skin whitening activity” (ANPEP INC., priority 2016, dated 2020)",
  "data": [
    {"test_system": "B16F1 cells", "assay": "Screening of tranexamic acid-peptides: intracellular melanin production in α-MSH-treated melanocytes", "format": "cell-based, mouse", "details": "α-MSH 20 μg/mL, 3 days, intracellular melanin at 490 nm; Control (No Treatment) = 100; test concentration not stated (1-250 μg/mL tested)", "protocol": "B16F1 cells, which are mouse melanocytes, were cultured in Dulbecco's modified Eagle's media (DMEM, Sigma), to which 10% fetal bovine serum (FBS, Sigma) was added, under 37° C. CO2 conditions. The cells were cultured in a 24-well plate at a concentration of 1×10^5 cells/well, and the attachment of cells was confirmed. Then, the control group was not treated with anything but only a solvent was added thereto, whereas a-MSH (20 μg/mL) was added to the positive control group. The remaining dishes were treated with α-MSH (20 μg/mL), 40 kinds of tranexamic acid-peptides, and the control group with Arbutin and AA2G, to a concentration of 1 μg/mL, 10 μg/mL, 100 μg/mL, and 250 μg/mL, respectively. Test materials were added to each dish and cultured for 3 days. After 3 days, the culture was removed by centrifugation, and the cells were lysed and intracellular melanin was collected, and observed at 490 nm to measure the amount of intracellular melanin production.\n40 kinds of tranexamic acid-peptides were treated according to concentration, and their inhibitory effect against melanin production was measured.", "units": {"α-MSH Inhibitory Ability (%)": "%"}, "values": [
      {"compound": "NC[C@H]1CC[C@H](C(=O)O)CC1", "note": "[TXA, tranexamic acid]", "α-MSH Inhibitory Ability (%)": 45},
      {"compound": "Tranexamil-AA [Dipeptide-26 AA]", "α-MSH Inhibitory Ability (%)": 92},
      {"compound": "Tranexamil-AH [Dipeptide-11 AH]", "α-MSH Inhibitory Ability (%)": 82},
      {"compound": "Tranexamil-AR [Dipeptide-31 AR]", "α-MSH Inhibitory Ability (%)": 93},
      {"compound": "Tranexamil-AS [Dipeptide-1 AS]", "α-MSH Inhibitory Ability (%)": 98},
      {"compound": "Tranexamil-AT [Dipeptide-2 AT]", "α-MSH Inhibitory Ability (%)": 88},
      {"compound": "Tranexamil-CC [Dipeptide-12 CC]", "α-MSH Inhibitory Ability (%)": 83},
      {"compound": "Tranexamil-CG [Dipeptide-39 CG]", "α-MSH Inhibitory Ability (%)": 92},
      {"compound": "Tranexamil-EC [Dipeptide-20 EC]", "α-MSH Inhibitory Ability (%)": 61},
      {"compound": "Tranexamil-ES [Dipeptide-5 ES]", "α-MSH Inhibitory Ability (%)": 80},
      {"compound": "Tranexamil-ET [Dipeptide-38 ET]", "α-MSH Inhibitory Ability (%)": 52},
      {"compound": "Tranexamil-GH [Dipeptide-9 GH]", "α-MSH Inhibitory Ability (%)": 70},
      {"compound": "Tranexamil-GK [Dipeptide-29 GK]", "α-MSH Inhibitory Ability (%)": 96},
      {"compound": "Tranexamil-GP [Dipeptide-4 GP]", "α-MSH Inhibitory Ability (%)": 80},
      {"compound": "Tranexamil-HA [Dipeptide-28 HA]", "α-MSH Inhibitory Ability (%)": 87},
      {"compound": "Tranexamil-KD [Dipeptide-16 KD]", "α-MSH Inhibitory Ability (%)": 81},
      {"compound": "Tranexamil-KK [Dipeptide-6 KK]", "α-MSH Inhibitory Ability (%)": 83},
      {"compound": "Tranexamil-KV [Dipeptide-30 KV]", "α-MSH Inhibitory Ability (%)": 83},
      {"compound": "Tranexamil-MA [Dipeptide-10 MA]", "α-MSH Inhibitory Ability (%)": 56},
      {"compound": "Tranexamil-MY [Dipeptide-8 MY]", "α-MSH Inhibitory Ability (%)": 78},
      {"compound": "Tranexamil-NA [Dipeptide-17 NA]", "α-MSH Inhibitory Ability (%)": 79},
      {"compound": "Tranexamil-NT [Dipeptide-40 NT]", "α-MSH Inhibitory Ability (%)": 84},
      {"compound": "Tranexamil-PF [Dipeptide-22 PF]", "α-MSH Inhibitory Ability (%)": 89},
      {"compound": "Tranexamil-PP [Dipeptide-35 PP]", "α-MSH Inhibitory Ability (%)": 85},
      {"compound": "Tranexamil-PQ [Dipeptide-33 PQ]", "α-MSH Inhibitory Ability (%)": 71},
      {"compound": "Tranexamil-QG [Dipeptide-34 QG]", "α-MSH Inhibitory Ability (%)": 85},
      {"compound": "Tranexamil-RP [Dipeptide-32 RP]", "α-MSH Inhibitory Ability (%)": 87},
      {"compound": "Tranexamil-SA [Dipeptide-13 SA]", "α-MSH Inhibitory Ability (%)": 81},
      {"compound": "Tranexamil-SS [Dipeptide-19 SS]", "α-MSH Inhibitory Ability (%)": 80},
      {"compound": "Tranexamil-SV [Dipeptide-37 SV]", "α-MSH Inhibitory Ability (%)": 64},
      {"compound": "Tranexamil-TA [Dipeptide-21 TA]", "α-MSH Inhibitory Ability (%)": 76},
      {"compound": "Tranexamil-TS [Dipeptide-18 TS]", "α-MSH Inhibitory Ability (%)": 75},
      {"compound": "Tranexamil-VP [Dipeptide-25 VP]", "α-MSH Inhibitory Ability (%)": 69},
      {"compound": "Tranexamil-VR [Dipeptide-36 VR]", "α-MSH Inhibitory Ability (%)": 70},
      {"compound": "Tranexamil-VV [Dipeptide-24 VV]", "α-MSH Inhibitory Ability (%)": 72},
      {"compound": "Tranexamil-WA [Dipeptide-14 WA]", "α-MSH Inhibitory Ability (%)": 65},
      {"compound": "Tranexamil-WE [Dipeptide-15 WE]", "α-MSH Inhibitory Ability (%)": 78}
    ]},
    {"test_system": "mouse melanocytes", "assay": "Whitening effect: melanin production in α-MSH-treated melanocytes by visual inspection", "format": "cell-based", "details": "images of melanocytes, similar concentrations, 3 days", "protocol": "According to a preferred embodiment of the present invention, the peptides of the present invention […] the melanin production in a concentration-dependent manner. […] Additionally, when cells were treated with 4 kinds of the tranexamic acid-peptides; the peptides, to which tranexamic acid was not bound; Arbutin; and AA2G at various concentrations (1μ, 10μ, 100μ, and 250μ), cultured for 3 days, and the absorbance of the cultures were measured at 490 nm and analyzed.\nTranexamic acid-peptides were treated according to concentration and their inhibitory effect against melanin production was measured. The mouse melanocytes were cultured in Dulbecco's modified Eagle's media (DMEM, Sigma) containing 10% fetal bovine serum ([…], Sigma) under 37° C. CO2 conditions.\nThe cells were cultured in a 24-well plate at a concentration of 1×10^5 cells/well, and the attachment of cells was confirmed. Then, the control group was not treated with anything but only a solvent was added thereto, whereas a-MSH ([…]) was added to the positive control group. The remaining dishes were treated with α-MSH (20 μg/mL), 4 kinds of tranexamic acid-peptides, and the control group with Arbutin and AA2G, to a concentration of 1 μg/mL, 10 μg/mL, 100 μg/mL, and 250μ), respectively. Test materials were added to each dish and cultured for 3 days. […]", "values": [
      {"compound": "OC[C@H]1O[C@@H](Oc2ccc(O)cc2)[C@H](O)[C@@H](O)[C@@H]1O", "note": "[Arbutin]", "cell number compared to α-MSH treatment": "rapidly decreased"}
    ]},
    {"test_system": "skin pigmentation (melanin index)", "assay": "Clinical test of creams: skin pigmentation by Mexameter", "format": "in vivo, human", "details": "54 women, creams with 1% tranexamic acid-dipeptide or tranexamic acid, 2 times a day", "description": "(§1) In particular, a cream containing tranexamic acid was used as the positive control group and the standard base cream was used as the negative control group.\n(§2) The face of each subject was divided into two parts vertically and the two kinds of creams prepared above were applied to each face. The subjects were required to continuously use the creams in the morning and evening, 2 times a day for 8 weeks after washing the face.\n(§3) For the objective evaluation of changes in skin pigmentation before and after the use of the creams, the changes in pigmentation were measured using the Mexameter (CK, Germany) before the use of the creams, 2 weeks, 4 weeks, 6 weeks, and 8 weeks after the use of the creams.\n(§4) As a result of the above experiment, the tranexamic acid-dipeptide with a greater effect between the two kinds of tranexamic acid-dipeptides, was selected and, as an attempt to reduce the content in the cream, a cream containing 0.5% tranexamic acid-dipeptide was prepared. Ten women subjects were collected and the 8-week clinical experiment was performed in the same manner as described above.", "units": {"decrease of the melanin index after 8 weeks": "%"}, "values": [
      {"compound": "NC[C@H]1CC[C@H](C(=O)O)CC1", "note": "[TXA, tranexamic acid]", "decrease of the melanin index after 8 weeks": 11.4}
    ]},
    {"test_system": "skin pigmentation (melanin index)", "assay": "Clinical test of creams: skin pigmentation by Mexameter", "format": "in vivo, human", "details": "ten women, cream with 0.5% tranexamic acid-dipeptide or tranexamic acid, 2 times a day", "description": "as §1, §2, §3, §4", "units": {"decrease of the melanin index after 8 weeks": "%"}, "values": [
      {"compound": "NC[C@H]1CC[C@H](C(=O)O)CC1", "note": "[TXA, tranexamic acid]", "decrease of the melanin index after 8 weeks": 10.2}
    ]}
  ]
}
